The record followed here is patent US5574026A, “Methods for inhibiting angiogenesis proliferation of endothelial or tumor cells and tumor growth” (American Cyanamid Company, priority 1994, dated 1996).

≈ marks a conversion by molar mass, not a printed value. Structures can show the parent of a compound that is named as a salt. Where two headings read alike, the source gives them in different places.

Holding throughout (test): Antiproliferative activity in human tumor cell lines, PROTOCOL 1 and PROTOCOL 2
Common to all, as to format: cell-based

One test deals with A2780/DDP. Conditions: ovarian tumor cell line /DDP, 48 hours, read-out: IC50. The protocol: The assays are identified as follows: PROTOCOLS 1, 2, and 3 are described in greater detail hereinbelow. In general, according to PROTOCOLS 1 and 2, the target ABAE and/or Human Tumor cells are exposed to the compounds of Formula I for 48 hours. PROTOCOL 3 exposes ABAE cells to the compounds for 4 days. A detailed description of the Protocols is as follows: Antiproliferative Activity in Human Tumor Cell Lines The antiproliferative activity of the compounds of Formula I of the present invention is evaluated in a panel comprised of human tumor cell lines. […] Cultures are renewed after 20 passages with cells from a fresh stock of batch-frozen early passage cells. Cell lines are routinely checked for mycoplasma contamination (Genprobe). In a laminar flow hood, cells (1-5×10^4) are plated into 96-well microtiter plates in a volume of 0.1 ml/well with a bulk microtiter dispenser (Denley). […] Compounds are added using a Tomtec dispenser which simultaneously dispenses from one 96-well plate, containing the drug dilutions, to the plates containing the cells. After two days of continuous drug exposure, 50% cold trichloroacetic acid (TCA) is added to 10% final concentration to fix the cells, and after 60 minutes at 4° C., the TCA is aspirated and the plates are washed 5 times with deionized water using a microtiter plate washer. […] A 0.4% solution of the dye, sulforhodamine B, in glacial acetic acid is added to the plates, and the plates are washed 5 times with 1% glacial acetic acid using the automatic plate washed. The bound stain is solubilized with 0.1 ml of 10 mMTris base. The optical densities are read from an automatic spectrophotometric plate reader (Dynatech) directly to a main frame computer (VAX 8600). Positive controls, that include standard chemotherapeutic drugs (i.e., adriamycin, cisplatin, etc.), are included in every experiment. Background optical density measurements (complete media--cells, and complete media+drug-cells) are automatically subtracted from the appropriate control and test wells. Mean values and standard errors are determined from duplicate wells. A measure is also made of the optical density at time when the drugs are added. The number of cells after treatment (P), as % of control, is calculated for every concentration of drug, as follows: [formula] wherein: T is optical density measurement for treated cells after 48 hours; C is optical density measurement for untreated cells after 48 hours; Co is optical density measurement for cells at the time of drug addition. IC50 of Growth inhibition is calculated from the sets of P values using the RS-1 data package (BBN Software). Antiproliferative Activity in Human Tumor and Adult Bovine Aortic Endothelial Cell Lines (ABAE) The antiproliferative activity of the compounds of Formula I is evaluated in a panel comprised of human tumor cell lines as listed in Protocol 1 as well as an adult bovine aortic endothelial cell line (ABAE). This assay is a modification of PROTOCOL 1.

The subject of a further test is MIP. As to conditions: colon tumor cell line MIP, 48 hours. The protocol: (§1) The antiproliferative activity of the compounds of Formula I in an Adult Bovine Aortic Endothelial (ABAE) cell line and in Human Tumor cells lines is evaluated in three similar assays that measure growth inhibition. The assays are identified as follows:
(§2) PROTOCOLS 1, 2, and 3 are described in greater detail hereinbelow. In general, according to PROTOCOLS 1 and 2, the target ABAE and/or Human Tumor cells are exposed to the compounds of Formula I for 48 hours. PROTOCOL 3 exposes ABAE cells to the compounds for 4 days. A detailed description of the Protocols is as follows:
(§3) Antiproliferative Activity in Human Tumor Cell Lines
(§4) The antiproliferative activity of the compounds of Formula I of the present invention is evaluated in a panel comprised of human tumor cell lines. The human tumor cell lines are from
(§5) 2) Colon tumors: MIP, CACO2, and SW620.
(§6) All cell lines are maintained in log phase in RPMI 1640 media, supplemented with 5% fetal calf serum, penicillin/streptomycin and 2 mM L-glutamine. Cultures are renewed after 20 passages with cells from a fresh stock of batch-frozen early passage cells. Cell lines are routinely checked for mycoplasma contamination (Genprobe). In a laminar flow hood, cells (1-5×10^4) are plated into 96-well microtiter plates in a volume of 0.1 ml/well with a bulk microtiter dispenser (Denley). […] At this concentration, dimethylsulfoxide has no effect on cell growth. Compounds are added using a Tomtec dispenser which simultaneously dispenses from one 96-well plate, containing the drug dilutions, to the plates containing the cells. After two days of continuous drug exposure, 50% cold trichloroacetic acid (TCA) is added to 10% final concentration to fix the cells, and after 60 minutes at 4° C., the TCA is aspirated and the plates are washed 5 times with deionized water using a microtiter plate washer. The number of cells on the plate are quantitated using a protein dye-binding assay (Monks et al., 1991). A 0.4% solution of the dye, sulforhodamine B, in […] is added to the plates, and the plates are washed 5 times with 1% glacial acetic acid using the automatic plate washed. The bound stain is solubilized with 0.1 ml of 10 mMTris base. The optical densities are read from an automatic spectrophotometric plate reader (Dynatech) directly to a main frame computer (VAX 8600).
(§7) Positive controls, that include standard chemotherapeutic drugs (i.e., adriamycin, cisplatin, etc.), are included in every experiment.
(§8) Background optical density measurements (complete media--cells, and complete media+drug-cells) are automatically subtracted from the appropriate control and test wells. Mean values and standard errors are determined from duplicate wells. A measure is also made of the optical density at time when the drugs are added. The number of cells after treatment (P), as % of control, is calculated for every concentration of drug, as follows: [formula] wherein: T is optical density measurement for treated cells after 48 hours;
(§9) C is optical density measurement for untreated cells after 48 hours;
(§10) Co is optical density measurement for cells at the time of drug addition.
(§11) IC50 of Growth inhibition is calculated from the sets of P values using the RS-1 data package (BBN Software).
(§12) Antiproliferative Activity in Human Tumor and Adult Bovine Aortic Endothelial Cell Lines (ABAE)
(§13) The antiproliferative activity of the compounds of Formula I is evaluated in a panel comprised of human tumor cell lines as listed in Protocol 1 as well as an adult bovine aortic endothelial cell line (ABAE). This assay is a modification of PROTOCOL 1. The modifications include:
(§14) 1) each concentration for each compound is tested in a single well;
(§15) 2) compounds are tested at 20, 4, 0.8, 0.16 microgram/ml and additionally in some experiments at 100 and 0.32 microgram/ml;
(§16) 3) samples are pipetted into a 96-well plate for each of the cell lines by a Beckman Biomek 1000 SL robot; […]

Another test concerns CACO2. The protocol:
as §1, §2, §3, §4, §5, §6, §7, §8, §9, §10, §11, §12, §13, §14, §15, §16

Setting [1] is: Caco-2, colon tumor cell line CACO2, 48 hours, read-out: IC50.

What is called IC50 is the point on the concentration scale where inhibition reaches its midpoint.

On to `CN(C)[C@@H]1C(O)=C(C(N)=O)C(=O)[C@@]2(O)C(O)=C3C(=O)c4c(O)ccc(Br)c4CC3CC12` (stereo partly drawn) [Example 8, [4S-(4α,12aα)]-7-Bromo-4-(dimethylamino)-1,4,4a,5,5a,-6,11,12a-octahydro-3,10,12,12a-tetrahydroxy-1,11-dioxo-2-naphthacenecarboxamide sulfate], for which the IC50 in the test with A2780/DDP amounted to 0.6 µg/mL; with MIP, 2 µg/mL; in the test on CACO2 (setting [1]) it was 2.4 µg/mL.

For `CN(C)[C@@H]1C(O)=C(C(N)=O)C(=O)[C@@]2(O)C(O)=C3C(=O)c4c(O)ccc(I)c4CC3CC12` (stereo partly drawn) [Example 10, [4S-(4α,12aα)]-4-(Dimethylamino)-4,4,4a,5,5a,6,11,12a-octahydro-3,10,12,12a-tetrahydroxy-7-iodo-1,11-dioxo-2-naphthacenecarboxamide], the IC50 in the test with A2780/DDP came to 4 µg/mL (≈ 7.4 µM); with MIP, 0.8 µg/mL (≈ 1.48 µM); with CACO2 (Caco-2, 48 h) it was 2.8 µg/mL (≈ 5.18 µM).

With `CN(C)c1ccc(O)c2c1C[C@H]1C[C@H]3[C@H](N(C)C)C(O)=C(C(N)=O)C(=O)[C@@]3(O)C(O)=C1C2=O` [Minocycline, reference compound], the IC50 with A2780/DDP came out at 6.1 µg/mL (≈ 13.3 µM); with MIP, 6.1 µg/mL (≈ 13.3 µM); in the test on CACO2 (setting [1]) it was 9 µg/mL (≈ 19.7 µM).
